Experimental data taken from the NIST ThermoML archive (doi:10.1021/je800049b).
Numbers after ± are expanded uncertainties.

Assays:
[1] = Molar enthalpy of transition or fusion; settings: Crystal; DSC
[2] = Crystal; DTA

Molar enthalpy of transition or fusion [1]: 21.9 ± 0.65 kJ/mol | Normal melting temperature [2]: 192.97 ± 0.5 °C
SMILES: O=P(O)(c1ccccc1)c1ccccc1 [diphenylphosphinic acid]
